Literature values, collected in patent US20160015711A1, “CALCIUM PTERIN-6-CARBOXYLATE (CaPTERIN-6-COOH) AS A NOVEL IMMUNO-THERAPEUTIC” (SanRx Pharmaceuticals, Inc., priority 2014, published 2016).

Settings: pH <4

## Nc1nc([O-])c2nccnc2n1.Nc1nc([O-])c2nccnc2n1.[Ca+2] [DCP, dipterinyl calcium pentahydrate]
  stability under acidic conditions: breaks down to form CaPterin
